Values joined by “and” are separate entries in the source; they are usually repeats but may differ in a detail not shown here. Identical values can stand only once. “Also recorded” adds a separate entry of the source. Like-named read-outs stand apart in the source and are kept apart here.
Experiments:
[1] = test system: Streptococcus pyogenes MNWA; assay type: cell-based
[2] = test system: B. anthracis Sterne; assay type: cell-based, Bacillus anthracis; settings: for antimicrobial activity / growth inhibition: 24 h incubation; for bactericidal concentration / bacteriostatic concentration: 24 h
[3] = test system: S. aureus MN8; assay type: cell-based, Staphylococcus aureus
[4] = test system: Streptococcus agalactiae MNSI; assay type: cell-based
[5] = test system: S. aureus MN8; assay type: cell-based, Staphylococcus aureus; remark: listed apart in the source
[6] = test system: TSST-1 production by S. aureus MNPE; assay type: cell-based, Staphylococcus aureus
[7] = test system: TSST-1 production by S. aureus CDC587; assay type: cell-based, Staphylococcus aureus
[8] = test system: TSST-1 production by S. aureus MN8; assay type: cell-based, Staphylococcus aureus
[9] = test system: S. aureus; assay type: cell-based, Staphylococcus aureus
[10] = test system: S. aureus MN8; assay type: cell-based, Staphylococcus aureus; remark: listed apart in the source
[11] = test system: S. aureus CDC587; assay type: cell-based, Staphylococcus aureus
[12] = test system: S. aureus MNPE; assay type: cell-based, Staphylococcus aureus

## O=C1C=CC(=O)c2ccccc21 [1,4-naphthoquinone]
[1]
  antimicrobial activity / growth inhibition: strong antimicrobial activity
  fold less active than menadione: approximately 2 fold
[2]
  fold less active than menadione: approximately 2 fold
  antimicrobial activity / growth inhibition: strong antimicrobial activity
[3]
  antimicrobial activity / growth inhibition: strong antimicrobial activity
  fold less active than menadione: approximately 2 fold
[4]
  antimicrobial activity / growth inhibition: strong antimicrobial activity
  fold less active than menadione: approximately 2 fold

## CCCCCCCCCCCC(=O)OCC(O)CO (stereo not drawn) [GML, glycerol monolaurate]
[5]
  growth inhibition of S. aureus MN8: did not inhibit; also recorded: not inhibitory

## COC1=C(OC)C(=O)C(C/C=C(\C)CCC=C(C)C)=C(C)C1=O [coenzyme Q2]
[2]
  bactericidal concentration: ≥ 25 µg/mL
  bacteriostatic concentration: 12.5 µg/mL
[3]
  bactericidal concentration (≧3 log drop in CFUs/ml): 50 μg/ml
  bacteriostatic concentration (<3 log drop in CFUs/ml): 25 μg/ml

## COC1=C(OC)C(=O)C(C/C=C(\C)CC/C=C(\C)CCC=C(C)C)=C(C)C1=O [coenzyme Q3]
[2]
  bactericidal concentration: 50 µg/mL
  bacteriostatic concentration: 25 µg/mL
[3]
  bactericidal concentration (≧3 log drop in CFUs/ml): 50 μg/ml
  bacteriostatic concentration (<3 log drop in CFUs/ml): 25 μg/ml

## COC1=C(OC)C(=O)C(C/C=C(\C)CC/C=C(\C)CC/C=C(\C)CC/C=C(\C)CC/C=C(\C)CC/C=C(\C)CC/C=C(\C)CC/C=C(\C)CC/C=C(\C)CCC=C(C)C)=C(C)C1=O [coenzyme Q10, reference compound]
[1]
  antimicrobial activity / growth inhibition: lacked antimicrobial activity
[6]
  inhibition of TSST-1 production: did not inhibit
[7]
  inhibition of TSST-1 production: did not inhibit
[2]
  antimicrobial activity / growth inhibition: no antimicrobial activity
[3]
  antimicrobial activity / growth inhibition: no antimicrobial activity
[4]
  antimicrobial activity / growth inhibition: lacked antimicrobial activity
[8]
  inhibition of TSST-1 production: did not inhibit

## CC1=CC(=O)c2ccccc2C1=O [menadione]
[9]
  generation of resistant mutants: failed to generate resistant mutants
[1]
  antimicrobial activity / growth inhibition: inhibits the growth; also recorded: strong antimicrobial activity
  bactericidal concentration: 50 µg/mL and 100 µg/mL
  bacteriostatic concentration: 25 µg/mL
[10]
  bactericidal concentration: ≥ 50 µg/mL
  concentration of complete killing: 200 µg/mL
  difference in bactericidal concentration, anaerobic versus aerobic: 4 fold
  difference in concentration of complete killing, anaerobic versus aerobic: 16 fold
  growth inhibition when cultured aerobically compared to anaerobically: more effective
[11]
  antimicrobial activity: comparably bacteriostatic and bactericidal
[12]
  antimicrobial activity: comparably bacteriostatic and bactericidal
[2]
  bactericidal concentration: ≥ 25 µg/mL
  bacteriostatic concentration: 6.25 µg/mL and 12.5 µg/mL
  antimicrobial activity / growth inhibition: strong antimicrobial activity
[2]; listed as Menadione
  antimicrobial activity / growth inhibition: inhibits the growth
[3]
  antimicrobial activity / growth inhibition: inhibits the growth; also recorded: strong antimicrobial activity
[4]
  antimicrobial activity / growth inhibition: inhibits the growth; also recorded: strong antimicrobial activity
  bacteriostatic concentration: 6.25 mg/mL and 12.5 mg/mL
[8]
  concentration at which TSST-1 production was completely inhibited (no detectable TSST-1): ≥ 3.1 µg/mL
  doses that failed to inhibit TSST-1 production: < 3.1 µg/mL

## CC1=C(C/C=C(\C)CCC[C@H](C)CCC[C@H](C)CCCC(C)C)C(=O)c2ccccc2C1=O [phylloquinone, reference compound]
[1]
  antimicrobial activity / growth inhibition: no antimicrobial activity
[6]
  inhibition of TSST-1 production: did not inhibit
[7]
  inhibition of TSST-1 production: did not inhibit
[2]
  antimicrobial activity / growth inhibition: no antimicrobial activity
[3]
  antimicrobial activity / growth inhibition: no antimicrobial activity
[4]
  antimicrobial activity / growth inhibition: no antimicrobial activity
[8]
  inhibition of TSST-1 production: did not inhibit
